Test system: HepG2^control cells
Test: Seahorse cellular respiration (OCR)
Format: cell-based, human
Settings: NG-497 40 μM
From the text: NG-497 could affect respiration by limiting the availability of FAs as an energy substrate or by off-target effects leading to mitochondrial dysfunction, which is a major mechanism of drug-induced toxicity.[47] To monitor on- and off-target effects of NG-497 on cellular respiration, we performed seahorse experiments using HepG2 cells endogenously expressing (HepG2^control) or lacking ATGL (HepG2^AKO). This method allows the measurement of basal respiration (BR), maximal respiration (MR), proton leak (PL), ATP production (ATPP), spare respiratory capacity (SRC), and nonmitochondrial oxygen consumption (NMOC) after successive addition of oligomycin (ATP-synthase inhibitor), carbonyl cyanide p-trifluoromethoxyphenylhydrazone (FCCP) (uncoupler), and antimycin/rotenone (electron transport chain inhibitors). The human hepatoma cell line HepG2 was selected as a model since it is frequently used to monitor drug-induced mitochondrial dysfunction.[48] Like most cancer cell lines, HepG2 cells rely on anaerobic glycolysis for ATP generation, implicating that inhibition of lipolysis has only minor effects on respiration.
(a) HepG2 cells were treated with NG-497 (40 μM) or DMSO as control and oxygen consumption rate (OCR) was determined in Seahorse growth medium supplemented with glucose (25 mM) using the SeaHorse XF96 extracellular flux analyzer. OCR was determined after subsequent addition of 1 μM Oligomycin (ATP-synthase inhibitor), 1 μM FCCP (uncoupler), and 1 μM antimycin/rotenone (electron transport chain inhibitors). (b) Statistical analysis of basal respiration (BR), maximal respiration (MR), proton leak (PL), ATP production (ATPP), spare respiratory capacity (SRC), and nonmitochondrial oxygen consumption (NMOC) of control and NG-497-treated cells. (c) Extracellular acidification rate (ECAR) and (d) OCR of HepG2 cells were determined in Seahorse growth medium supplemented with glucose (25 mM) or galactose (10 mM). (e) Determination of the ORC of HepG2 cells grown in medium supplemented with galactose (10 mM) and NG-497 (40 μM) or DMSO as control with (f) respective statistical analysis. (g) ATGL gene was inactivated in HepG2 cells using the CRISPR/Cas9 system. Growth of cells expressing (HepG2^control) or lacking functional ATGL (HepG2^AKO) was determined using a BioRad cell analyzer. ATGL expression was analyzed by Western blotting analysis using an anti-ATGL antibody and GAPDH as a loading control (inset). (h) Acylglycerol content of HepG2^control and HepG2^AKO cells was determined by a commercial kit (TG Infinity reagent, Thermo Fisher Scientific). (i) OCR of galactose-supplemented HepG2^AKO cells and (j) the respective statistical analysis. Data are presented as mean ± standard error of the mean (SEM). Statistical significance was determined via Student’s t test (*p < 0.05; **p < 0.01; ***p < 0.001) or ANOVA followed by Bonferroni post hoc test (^#p < 0.05; ^##p < 0.01; ^###p < 0.001). […]
Sanger sequencing. The resulting constructs were transfected into HepG2 cells using the Turbofect Reagent (#R0531, Thermo Fisher Scientific) according to the manufacturer’s instructions. Cells transfected with empty pSpCas9(BB)-2A-Puro V2.0 served as negative control. 24 h after transfection, puromycin was added at a concentration of 4 µg/ml to eliminate non-transfected cells.
48 h later, the remaining cells were singularized in 96-well plates by seeding 1 cell/well. After clonal expansion for three weeks, the resulting cell lines were screened for ATGL deletion by immunoblotting using an ATGL-specific antibody (#2138S, CST). gRNA_v1 construct was chosen for further analysis.
Determination of cellular acylglycerol content. Cells were harvested in buffer A, total lipids extracted with chloroform/methanol (2/1, v/v) for 1 h at RT on a top-over wheel, and phase separation was achieved by centrifugation at 2,000 x g for 10min at RT. The organic phase was collected, dried under a stream of nitrogen, and dissolved in 2% Triton X-100 by […]
sonication. […]

[1] = glucose medium, tendency, not significant

SMILES: CCOc1ccc(-c2cc(OC)cc(C(=O)OC(C)C)n2)cc1 [NG-497]
- change of basal OCR (BR) (galactose (10 mM) medium): −15%
- change of maximal respiration (MR) (galactose (10 mM) medium): −17%
- change of spare respiratory capacity (SRC) (galactose (10 mM) medium): −20%
- change of maximal respiration (MR) [1]: −11%
- change of spare respiratory capacity (SRC) [1]: −18%
- effects on respiration (OCR parameters) (medium with glucose (25 mM)): could not observe significant effects
